Legend:
Human GR = molecular target: T1, Human GR (Homo sapiens, UniProt P00390); assay: Human GR enzyme inhibition (GSSG reduction, NADPH oxidation); assay type: biochemical; settings: for % inhibition: hGR
T1 construct: made in house
T1 sequence (P00390 44-522): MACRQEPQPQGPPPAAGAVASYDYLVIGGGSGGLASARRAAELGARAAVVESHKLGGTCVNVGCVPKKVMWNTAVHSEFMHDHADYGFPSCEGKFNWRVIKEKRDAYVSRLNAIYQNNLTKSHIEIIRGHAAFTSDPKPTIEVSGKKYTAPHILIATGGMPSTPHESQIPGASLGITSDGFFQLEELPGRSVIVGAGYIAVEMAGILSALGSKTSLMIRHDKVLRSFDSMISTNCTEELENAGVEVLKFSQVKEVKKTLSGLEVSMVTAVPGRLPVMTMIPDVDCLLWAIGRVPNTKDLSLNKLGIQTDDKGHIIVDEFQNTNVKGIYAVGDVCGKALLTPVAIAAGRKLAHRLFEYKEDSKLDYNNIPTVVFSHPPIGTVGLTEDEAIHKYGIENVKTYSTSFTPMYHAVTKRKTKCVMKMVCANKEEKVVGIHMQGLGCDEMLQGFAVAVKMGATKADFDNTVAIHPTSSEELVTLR
Method: Recombinant TGR, human TrxR1, B. malayi (Bm)TrxR and human GR proteins were expressed and purified as described[20],[69],[79]. The codon optimized sequence for P. falciparum (PfTrxR, https://www.ncbi.nlm.nih.gov/protein/CAA60574.1/) with an N-terminal 6-His tag was synthesized and inserted into pET15b (GenScript) and expressed in BL21 (DE3) cells and purified as described for human GR[20]. TGR and TrxR enzyme inhibition assays were performed in triplicate at 25 °C as described[20] in 0.1 M potassium phosphate (pH 7.4), 10 mM EDTA, 100 µM NADPH and 0.01% Tween-20. TGR, human TrxR1 and BmTrxR (all at 4 nM) and PfTrxR (50 nM) were preincubated with the compounds for 15 min. The reaction was started with addition of an equal volume of DTNB (6 mM) and NADPH (100 µM) and the increase in A412 during the first 3 min was recorded. […] […] Activity was initiated with the addition of 1 mM GSSG and 100 μM NADPH and initial rates of NADPH oxidation were monitored at 340 nm. The reactions were done in triplicate. The IC50 was calculated in GraphPad Prism.

Vero cells = assay: Cytotoxicity in mammalian cells (Cell Titer Glo); assay type: cell-based; settings: Vero cells
Method: Following overnight incubation, formulated DMSO-compound stock solutions were diluted with DMEM at <1% DMSO final concentrations. […] Vero cells treated similarly with different concentrations of PZQ, MZM and AF (Cayman Chemicals) were used as positive controls.

[1] = system: S. mansoni newly transformed schistosomula (NTS); assay: Schistosomicidal activity ex vivo, NTS (Cell Titer Glo); assay type: cell-based; settings: S. mansoni NTS
Method: Oncomelania hupensis subsp. hupensis, Chinese strain, infected with S. japonicum, Chinese strain, and Biomphalaria glabrata, strain NMRI, infected with S. mansoni, strain NMRI, were provided by the NIAID Schistosomiasis Resource Center for distribution through BEI Resources, NIAID, NIH. After infections were patent, snails were exposed to bright light for 1 hr to obtain cercariae. Cercariae were mechanically transformed to schistosomula. Briefly, cercariae were placed on ice for 30 min and then centrifuged at 350 × g for 10 mins. The supernatant was decanted and 2 ml of serum-free M199 medium was added to cercarial pellets and vortexed for 1 min until cercarial tails were detached. NTS were purified by layering on 4 °C Percoll gradient suspension containing Eagle’s minimum essential medium, penicillin-streptomycin (10,000 U per ml penicillin/10,000 U per ml streptomycin), and 1 M HEPES in 0.85% NaCl with cercariae suspension and centrifuged at 500 × g for 15 min. Cercarial pellets were resuspended and washed thrice in serum-free M199 medium and collected at 100 × g for 5 min. NTS (240) were transferred to U-bottom 96 well assay plates containing 200 µl of M199 medium supplemented with 5.5 mM D-glucose, penicillin-streptomycin and 5% heat inactivated fetal bovine serum and incubated at 37 °C in a 5% CO2 incubator overnight.
DMSO formulated compounds were diluted with phenol red free M199 medium or RPMI medium for NTS or juvenile and adult worms, respectively, at <1% DMSO final concentrations. NTS, juvenile and adult worms from overnight cultures were tested against compounds in triplicate. Controls were treated with DMSO alone or 5 µM AF as a positive control in appropriate medium. Worm viability was assessed at 24 or 72 h by measuring ATP content of worms using Cell Titer Glo Assay (Promega) as described. Schistosome viabilities in the presence of the compounds were assessed using this formula: % Viability = Averages of Test / Averages of DMSO Control x 100.

S. mansoni TGR = molecular target: T2, S. mansoni TGR (Schistosoma mansoni, UniProt Q962Y6); assay: S. mansoni TGR enzyme inhibition (DTNB reduction); assay type: biochemical; settings: for % inhibition: TGR
T2 construct: made in house
T2 sequence (Q962Y6 1-598): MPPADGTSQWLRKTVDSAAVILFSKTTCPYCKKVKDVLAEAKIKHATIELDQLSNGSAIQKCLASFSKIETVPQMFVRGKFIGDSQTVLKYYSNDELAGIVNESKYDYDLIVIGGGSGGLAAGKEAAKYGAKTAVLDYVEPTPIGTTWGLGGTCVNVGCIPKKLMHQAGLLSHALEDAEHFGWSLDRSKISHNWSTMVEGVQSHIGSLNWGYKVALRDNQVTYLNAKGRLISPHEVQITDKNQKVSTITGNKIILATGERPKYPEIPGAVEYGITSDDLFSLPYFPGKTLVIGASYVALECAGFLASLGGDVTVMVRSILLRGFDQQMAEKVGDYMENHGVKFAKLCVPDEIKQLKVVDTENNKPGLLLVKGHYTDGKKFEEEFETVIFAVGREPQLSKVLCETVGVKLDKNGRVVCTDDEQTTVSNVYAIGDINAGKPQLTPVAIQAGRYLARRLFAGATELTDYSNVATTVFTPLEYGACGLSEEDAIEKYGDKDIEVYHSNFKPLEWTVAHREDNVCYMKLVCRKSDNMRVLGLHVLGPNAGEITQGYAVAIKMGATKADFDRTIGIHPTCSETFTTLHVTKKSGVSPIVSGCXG
Method: (§1) Recombinant TGR, human TrxR1, B. malayi (Bm)TrxR and human GR proteins were expressed and purified as described[20],[69],[79]. The codon optimized sequence for P. falciparum (PfTrxR, https://www.ncbi.nlm.nih.gov/protein/CAA60574.1/) with an N-terminal 6-His tag was synthesized and inserted into pET15b (GenScript) and expressed in BL21 (DE3) cells and purified as described for human GR[20]. TGR and TrxR enzyme inhibition assays were performed in triplicate at 25 °C as described[20] in 0.1 M potassium phosphate (pH 7.4), 10 mM EDTA, 100 µM NADPH and 0.01% Tween-20. […] The reaction was started with addition of an equal volume of DTNB (6 mM) and NADPH (100 µM) and the increase in A412 during the first 3 min was recorded. […] The reaction was preincubated for 15 min. Activity was initiated with the addition of 1 mM GSSG and 100 μM NADPH and initial rates of NADPH oxidation were monitored at 340 nm. The reactions were done in triplicate. The IC50 was calculated in GraphPad Prism.

Human TrxR1 = molecular target: T3, Human TrxR1 (Homo sapiens, UniProt Q16881); assay: Human TrxR1 enzyme inhibition (DTNB reduction); assay type: biochemical; settings: 15 minutes pre-incubation
T3 construct: made in house
T3 sequence (Q16881 1-499 isoform Q16881-5): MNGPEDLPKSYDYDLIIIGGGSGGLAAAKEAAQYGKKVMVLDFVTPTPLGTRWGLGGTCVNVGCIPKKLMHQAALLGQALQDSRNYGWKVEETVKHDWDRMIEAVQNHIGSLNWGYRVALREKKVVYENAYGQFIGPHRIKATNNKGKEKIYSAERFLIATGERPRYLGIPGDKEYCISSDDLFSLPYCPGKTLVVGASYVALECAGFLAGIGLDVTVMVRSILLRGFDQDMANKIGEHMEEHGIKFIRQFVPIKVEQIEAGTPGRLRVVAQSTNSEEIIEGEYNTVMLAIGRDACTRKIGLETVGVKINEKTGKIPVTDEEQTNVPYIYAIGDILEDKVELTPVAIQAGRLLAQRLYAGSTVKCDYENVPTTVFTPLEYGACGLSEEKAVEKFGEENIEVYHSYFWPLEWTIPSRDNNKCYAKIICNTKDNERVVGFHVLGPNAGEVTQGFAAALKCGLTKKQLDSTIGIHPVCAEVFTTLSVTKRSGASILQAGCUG
Method: as §1

[2] = 15 minutes pre-incubation, compound 15 µM
[3] = 15 minutes pre-incubation, compound 30 µM
[4] = 15 minutes pre-incubation, compound 66.7 µM
[5] = 6 hours pre-incubation, compound 15 µM
[6] = 6 hours pre-incubation, compound 30 µM
[7] = 6 hours pre-incubation, compound 66.7 µM
[8] = 15 minutes pre-incubation, 15 µM
[9] = 15 minutes pre-incubation, 30 µM
[10] = 15 minutes pre-incubation, 66.7 µM

Cc1oc(C2CCCCC2)nc1CN[C@@H]1C[C@@H]2C[C@H]([C@H]1C)C2(C)C [C4]
% inhibition (Human GR; [2]): -0.5314% | % inhibition (Human GR; [3]): -1.471% | % inhibition (Human GR; [4]): -0.894% | % inhibition (Human GR; [5]): -2.859% | % inhibition (Human GR; [6]): -0.4408% | % inhibition (Human GR; [7]): -0.3554% | % viability (Vero cells; Conc. 5 µM): 99.7864% | % viability (Vero cells; Conc. 10 µM): 99.8193% | % viability (Vero cells; Conc. 25 µM): 95.3884% | % viability (Vero cells; Conc. 35 µM): 94.379% | % viability (Vero cells; Conc. 50 µM): 91.2714% | % viability ([1]; Conc. 1 µM): 51.9254% | % viability ([1]; Conc. 5 µM): 22.4326% | % viability ([1]; Conc. 15 µM): 2.552% | % viability ([1]; Conc. 30 µM): 0.3078% | % viability ([1]; Conc. 50 µM): 0.1166% | % inhibition (S. mansoni TGR; [2]): 4.307% | % inhibition (S. mansoni TGR; [3]): 7.284% | % inhibition (S. mansoni TGR; [4]): 12.4488% | % inhibition (S. mansoni TGR; [5]): 20.5703% | % inhibition (S. mansoni TGR; [6]): 43.128% | % inhibition (S. mansoni TGR; [7]): 68.6238%

C[C@@H]1[C@H]2C[C@@H](C[C@H]1NC(=O)Cc1nc3ccccc3n1C1CCCCC1)C2(C)C [C10]
hGR % inhibition (Human GR; [8]): -6.32% | hGR % inhibition (Human GR; [9]): -6.329% | hGR % inhibition (Human GR; [10]): 1.247% | hGR % inhibition (Human GR; 6 hours pre-incubation, 15 µM): -1.804% | hGR % inhibition (Human GR; 6 hours pre-incubation, 30 µM): -1.476% | hGR % inhibition (Human GR; 6 hours pre-incubation, 66.7 µM): -1.27% | hsTrxR % inhibition (Human TrxR1; 1 µM): 3.958% | hsTrxR % inhibition (Human TrxR1; 5 µM): 29.0366% | hsTrxR % inhibition (Human TrxR1; 15 µM): 63.1349% | hsTrxR % inhibition (Human TrxR1; 30 µM): 85.1161% | hsTrxR % inhibition (Human TrxR1; 66.7 µM): 92.1898% | TGR % inhibition (S. mansoni TGR; 15 minutes pre-incubation, 1 µM): 1.833% | TGR % inhibition (S. mansoni TGR; 15 minutes pre-incubation, 5 µM): 5.968% | TGR % inhibition (S. mansoni TGR; [8]): 42.2698% | TGR % inhibition (S. mansoni TGR; [9]): 76.1929% | TGR % inhibition (S. mansoni TGR; [10]): 82.1691%

Source: article PMC10287695, “Non-covalent inhibitors of thioredoxin glutathione reductase with schistosomicidal activity in vivo” (Nature Communications, 2023)
